Assay results published in PubChem BioAssay (NCI).
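Grown in 96-well plates, cells were treated for 48 hours with each compound at five concentrations. Insufficient inhibition: endpoint recorded as highest concentration tested. TGI marks complete inhibition of growth.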

Assays:
Test in all cases: inhibition of tumour cell growth, NCI panel, 48 h
[1] = tested on: 786-0 renal
[2] = tested on: A498 renal
[3] = tested on: A549 NSCLC
[4] = tested on: ACHN renal
[5] = tested on: BT-549 breast
[6] = tested on: CAKI-1 renal
[7] = tested on: CCRF-CEM leukemia
[8] = tested on: COLO 205 colon
[9] = tested on: DU-145 prostate
[10] = tested on: EKVX NSCLC
[11] = tested on: HCC-2998 colon
[12] = tested on: HCT-116 colon
[13] = tested on: HCT-15 colon
[14] = tested on: HL-60(TB) leukemia
[15] = tested on: HOP-62 NSCLC
[16] = tested on: HOP-92 NSCLC
[17] = tested on: HS 578T breast
[18] = tested on: HT29 colon
[19] = tested on: IGROV1 ovarian
[20] = tested on: K-562 leukemia
[21] = tested on: KM12 colon
[22] = tested on: LOX IMVI melanoma
[23] = tested on: M14 melanoma
[24] = tested on: MALME-3M melanoma
[25] = tested on: MCF7 breast
[26] = tested on: MDA-MB-231 breast
[27] = tested on: MDA-MB-435
[28] = tested on: MDA-N
[29] = tested on: MOLT-4 leukemia
[30] = tested on: NCI-H226 lung
[31] = tested on: NCI-H23 lung
[32] = tested on: NCI-H460 lung
[33] = tested on: NCI-H522 lung
[34] = tested on: NCI/ADR-RES ovarian
[35] = tested on: OVCAR-3 ovarian
[36] = tested on: OVCAR-4 ovarian
[37] = tested on: OVCAR-5 ovarian
[38] = tested on: OVCAR-8 ovarian
[39] = tested on: PC-3 prostate
[40] = tested on: RPMI-8226 leukemia
[41] = tested on: RXF 393 renal
[42] = tested on: SF-268 CNS
[43] = tested on: SF-295 CNS
[44] = tested on: SF-539 CNS
[45] = tested on: SK-MEL-28 melanoma
[46] = tested on: SK-MEL-5 melanoma
[47] = tested on: SK-OV-3 ovarian
[48] = tested on: SN12C renal
[49] = tested on: SNB-19 CNS
[50] = tested on: SNB-75 CNS
[51] = tested on: SW-620 colon
[52] = tested on: T-47D breast
[53] = tested on: TK-10 renal
[54] = tested on: U251 CNS
[55] = tested on: UACC-257 melanoma
[56] = tested on: UACC-62 melanoma
[57] = tested on: UO-31 renal
[58] = tested on: SK-MEL-2 melanoma

## Cc1ccc(C[N+](C)(C)N)cc1C
[1]
  TGI: > 10 µM
[2]
  TGI: > 10 µM
[3]
  TGI: > 10 µM
[4]
  TGI: > 10 µM
[5]
  TGI: > 10 µM
[6]
  TGI: > 10 µM
[7]
  TGI: > 10 µM
[8]
  TGI: > 10 µM
[9]
  TGI: > 10 µM
[10]
  TGI: > 10 µM
[11]
  TGI: > 10 µM
[12]
  TGI: > 10 µM
[13]
  TGI: > 10 µM
[14]
  TGI: > 10 µM
[15]
  TGI: > 10 µM
[16]
  TGI: > 10 µM
[17]
  TGI: > 10 µM
[18]
  TGI: > 10 µM
[19]
  TGI: > 10 µM
[20]
  TGI: > 10 µM
[21]
  TGI: > 10 µM
[22]
  TGI: > 10 µM
[23]
  TGI: > 10 µM
[24]
  TGI: > 10 µM
[25]
  TGI: > 10 µM
[26]
  TGI: > 10 µM
[27]
  TGI: > 10 µM
[28]
  TGI: > 10 µM
[29]
  TGI: > 10 µM
[30]
  TGI: > 10 µM
[31]
  TGI: > 10 µM
[32]
  TGI: > 10 µM
[33]
  TGI: > 10 µM
[34]
  TGI: > 10 µM
[35]
  TGI: > 10 µM
[36]
  TGI: > 10 µM
[37]
  TGI: > 10 µM
[38]
  TGI: > 10 µM
[39]
  TGI: > 10 µM
[40]
  TGI: > 10 µM
[41]
  TGI: > 10 µM
[42]
  TGI: > 10 µM
[43]
  TGI: > 10 µM
[44]
  TGI: > 10 µM
[45]
  TGI: > 10 µM
[46]
  TGI: > 10 µM
[47]
  TGI: > 10 µM
[48]
  TGI: > 10 µM
[49]
  TGI: > 10 µM
[50]
  TGI: > 10 µM
[51]
  TGI: > 10 µM
[52]
  TGI: > 10 µM
[53]
  TGI: > 10 µM
[54]
  TGI: > 10 µM
[55]
  TGI: > 10 µM
[56]
  TGI: > 10 µM
[57]
  TGI: > 10 µM

## COC(=O)[C@@H](Nc1ccccc1)[C@@]1(C(=O)OC)SC12c1ccccc1-c1ccccc12
[1]
  TGI: > 100 µM
[2]
  TGI: > 100 µM
[3]
  TGI: > 100 µM
[4]
  TGI: > 100 µM
[5]
  TGI: > 100 µM
[6]
  TGI: > 100 µM
[7]
  TGI: > 100 µM
[8]
  TGI: > 100 µM
[9]
  TGI: > 100 µM
[10]
  TGI: > 100 µM
[11]
  TGI: > 100 µM
[12]
  TGI: > 100 µM
[13]
  TGI: > 100 µM
[14]
  TGI: > 100 µM
[15]
  TGI: > 100 µM
[16]
  TGI: > 100 µM
[17]
  TGI: > 100 µM
[18]
  TGI: > 100 µM
[19]
  TGI: > 100 µM
[20]
  TGI: > 100 µM
[21]
  TGI: > 100 µM
[22]
  TGI: > 100 µM
[23]
  TGI: > 100 µM
[24]
  TGI: > 100 µM
[25]
  TGI: > 100 µM
[26]
  TGI: > 100 µM
[27]
  TGI: > 100 µM
[28]
  TGI: > 100 µM
[29]
  TGI: > 100 µM
[30]
  TGI: > 100 µM
[31]
  TGI: > 100 µM
[33]
  TGI: 62.5 µM
[34]
  TGI: > 100 µM
[35]
  TGI: > 100 µM
[36]
  TGI: > 100 µM
[37]
  TGI: > 100 µM
[38]
  TGI: > 100 µM
[39]
  TGI: > 100 µM
[40]
  TGI: > 100 µM
[41]
  TGI: > 100 µM
[42]
  TGI: > 100 µM
[43]
  TGI: > 100 µM
[44]
  TGI: > 100 µM
[58]
  TGI: > 100 µM
[45]
  TGI: > 100 µM
[46]
  TGI: > 100 µM
[48]
  TGI: > 100 µM
[49]
  TGI: > 100 µM
[51]
  TGI: > 100 µM
[52]
  TGI: > 100 µM
[53]
  TGI: > 100 µM
[54]
  TGI: > 100 µM
[55]
  TGI: > 100 µM
[56]
  TGI: > 100 µM
[57]
  TGI: > 100 µM
